Reference: US9492423B2, “Formulations of histone deacetylase inhibitor in combination with bendamustine and uses thereof” (PHARMACYCLICS LLC, priority 2011, dated 2016)

Columns and labels:
[1] = Phase 1 trial of oral capsule Compound 1, HCl: plasma pharmacokinetics; type: in vivo; details: human, 30 mg/m^2 dose of capsule formulation of Example 2, solid tumor cancer patients, mean±SE, read-out: AUC0-4h for plasma concentrations
Protocol: (§1) This is a Phase 1 dose-escalation study of the safety, pharmacokinetics, and pharmacodynamics of Compound 1, HCl administered orally in patients with advanced cancer.
(§2) In the Phase 1 dose escalation study, up to 7 cohorts will receive Compound 1, HCl orally at doses starting at 30 mg/m^2, approximately 4-6 hours apart, up to 90 mg/m^2, 2 or 3 times a day according to 3 different dosing schedules within 28 day cycle (5 days of dosing followed by 2 days of no dosing; 5 days of dosing followed by 9 days of no dosing; 7 days of dosing followed by 7 days of no dosing) until the maximum tolerated dose is reached.
The following pharmacokinetic information was determined for patients that received a […] dose of the capsule formulation of Example 2. Solid tumor cancer patients received a […] dose of the capsule formulation of Example 2. Blood samples that were collected for up to 24 hours post-dosing were analyzed for pharmacokinetic evaluations. Plasma was harvested by centrifugation and stored at approximately −70° C. until analysis. Concentrations of Compound 1 were determined in plasma using HPLC gradient system (Hewlett Packard model 1100) was configured with Sciex API 3000 and a reversed phase column (Phenomenex, Luna C18, 3.0 μm, 50×2 mm i.d.). The mobile phase gradient consisted of 0.2% formic acid in water (A) and 0.2% formic acid in methanol (B). […]

[2] = tested on: H929 (Multiple Myeloma); assay: Tumor growth inhibition study, H929 bearing female SCID mice; type: in vivo; details: PCI-24781 12 mg/kg BID IP 5 d/wk; bendamustine 5.0 mg/kg qd IP 2 d/wk; FIG. 7
Protocol: Mice inoculated subcutaneously in the right hind flank with H929 MM cells at a density of 1×10^7 cells in a volume of 100 μL/mouse 4 groups of animals (n=8/group) received vehicle (BID, IP, 5 d/wk), PCI-24781 alone (12 mg/kg BID, IP, 5 d/wk), bendamustine alone 5.0 mg/kg (qd, IP, 2 d/wk Tu, Th) or the combination. Body weights and tumor measurements were collected a minimum of 2 times each week for all animals. Blood and tumor samples were collected at study termination for pharmacodynamic evaluations.

[3] = tested on: Neuroblastoma cell lines and patient-derived primary neuroblastoma cultures; assay: Neuroblastoma cell viability, calcein AM assay; type: cell-based; details: 48 hours, viability by calcein AM
Protocol: Neuroblastoma cell lines and patient-derived primary neuroblastoma cultures were treated with bortezomib, Compound 1 alone or a combination of both agents for 48 hours. Cells were also treated with HDAC inhibitors vorinostat, sodium butyrate, and valproic acid and viability was assessed by calcein AM assays. mRNA from treated cells was evaluated at 6 and 24 hours using U133+ mRNA expression arrays and Ingenuity analysis. Dichlorofluorescein (DCF) was used to measure reactive oxygen species (ROS). Cell viability assays were repeated in the presence of N-acetylcysteine (NAC). Western blot evaluated caspase-3 and PARP cleavage. Nude mice were injected with 10^7 SMS-KCNR cells subcutaneously and treated with daily doses of 0.5 mg/kg bortezomib, 12.5 mg/kg Compound 1, or a combination of the two agents. Tumors were measured and imaged twice per week.

[4] = Clinical PK of Compound 1 in solution form, single oral dose and 2-hour IV infusion doses; details: human, in vivo, humans
Protocol: In clinical trials involving humans with cancer, Compound 1 in solution form was administered at 2 mg/kg as a single oral dose and as multiple 2-hour IV infusion doses.

[5] = tested on: RAD51; assay: Jurkat cells, pretreatment and bendamustine-induced RAD51 upregulation; type: cell-based, human; details: Jurkat cells pre-treated one day with 0.2 uM Compound 1, then 20 uM bendamustine for 1 day, FIG. 9
Protocol: Cells were pre-treated one day is advance with 0.2 uM HDAC inhibitor (i.e., Compound 1), then 20 uM bendamustine was added for 1 day.

[6] = tested on: Jurkat (leukemia) and HCT-116 (colon tumor); assay: In vitro dose scheduling studies, apoptosis by FACS (annexinV-FITC/PI); type: cell-based, human
Protocol: Pharmacokinetic data (pk) data from human patients was used to model various dose regimens using human cell lines: Jurkat (leukemia) and HCT-116 (colon tumor). The human cell lines were treated with or without a HDAC inhibitor (e.g. Compound 1). Cells were cultured, treated according to different regimens and concentrations to model the corresponding dosing regimen (continuous low dose: 0.2 μM; intravenous (IV): 2 μM 3 hours+0.3 μM 4 hours; oral BID: 0.4 μM 4 hours×2, 4 hours apart; oral consecutive BID: 0.4 μM 8 hours; oral consecutive TID: 0.266 μM 12 hours), then washed out to mimic the human in vivo PK.
Cell viability was examined by an analysis of apoptosis using fluorescence activated cell sorting (FACS) after staining with annexinV-FITC and propidium iodide (PI). In brief, after treatment, 1×10^6 cells were washed with phosphate buffered saline (PBS) and then labeled with annexinV-FITC/PI in the binding buffer according to manufacturer's protocol. Fluorescent signals of FITC and PI were detected at 518 nm and 620 nm, respectively, on a Beckman Coulter FACS instrument (Fullerton, Calif.). The data were analyzed with Flow Jo software (Tree Star, Ashland, Oreg.).

[7] = Phase 1 trial of oral capsule Compound 1, HCl: safety, tolerability, pharmacodynamics; type: in vivo
Excerpt: as §1
This study seeks to determine the highest dose of Compound 1, HCl that can be taken without causing serious side effects in patients with advanced cancer. The study will look at safety of the study drug (Compound 1, HCl) and whether the treatment schedule is tolerated by patients.
as §2
Patients should satisfy the following criteria: At least 18 years of age; histologically confirmed, measurable solid tumor, non-Hodgkin's lymphoma, Hodgkin's disease, chronic lymphocytic leukemia, or multiple myeloma that has relapsed after standard therapy or for which no standard therapy exists; ability to swallow oral capsules without difficulty; estimated life expectancy>12 weeks; ECOG performance status≦2; Creatinine≦1.5×institutional upper limit of normal (ULN); Total bilirubin≦1.5×institutional ULN (unless elevated from documented Gilbert's syndrome); AST and ALT≦2.5×institutional ULN (≦5×institutional ULN in the presence of liver metastases); Platelet count≧100,000/μL; ANC≧1500/μL; Hgb≧9.0 g/dL; Patients with previously treated, stable, asymptomatic brain metastases who are not on corticosteroids are eligible; Willing and able to sign a written informed consent.

[8] = tested on: RAD51; assay: Western blot of DNA repair proteins in multiple myeloma cell lines; type: cell-based; details: FIG. 6A
Excerpt: RAD51 represents an essential component of homologous recombination (HR), one of the two major DNA double-strand break (DSB) repair pathways in cells; the second pathway, non-homologous end joining (NHEJ), represented here by two of its components Ku-70 and DNA-PKcs, is not affected by these treatments. […] As explained supra, the synergistic anti-multiple myeloma activity of the bendamustine-Compound 1 combination could be due to a reduction in RAD51 levels caused by the HDAC inhibitor (i.e., Compound 1).

SMILES	AUC(0-t) [1] [µM·h]	tumor growth inhibition [2] [%]	IC50 [3] [nM]	bioavailability ([4]; 2 mg/kg, administered as immediate release capsules or an oral solution) [%]	bioavailability ([4]; 2 mg/kg solution, from oral and IV AUC0-∞) [%]	bendamustine-induced RAD51 upregulation [5]	efficacy of modelled oral tid dosing versus bid dosing ([6]; 0.266 μM 12 hours versus 0.4 μM 8 hours)	efficacy of modelled oral bid dosing given consecutively (4 hours apart) versus with a break in between ([6]; 0.4 μM 8 hours versus 0.4 μM 4 hours×2)	efficacy (tumor cell death) of modelled dose schedule ([6]; continuous exposure for at least 8 hours)	average grade of thrombocytopenia, TID versus BID consecutive dosing ([7]; daily exposure range of 0.63 to 2.15 μM·h)	therapeutic effect ([7]; immediate release capsule, 2 or 3 consecutive doses 4 to 6 hours apart on days of dosing)	incidence of Grade 4 thrombocytopenia (platelet count <25,000 per mm^2) ([7]; solid tumor and lymphoma patients, cycles of 7 days oral dosing followed by 7 days without dosing)	NHEJ components Ku-70 and DNA-PKcs [8]	RAD51 expression [8]
CN(C)Cc1c(C(=O)NCCOc2ccc(C(=O)NO)cc2)oc2ccccc12 [Compound 1, N-hydroxy-4-{2-[3-(N,N-dimethylaminomethyl)benzofuran-2-ylcarbonylamino]ethoxy}-benzamide]	0.272 ± 0.051	73	< 200	~27	~27	suppressed bendamustine-induced RAD51 upregulation	better	more efficacious	good efficacy	higher average grade of thrombocytopenia	therapeutic effect of Compound 1 was achieved	limited incidence of Grade 4 thrombocytopenia	not affected	downregulation of RAD51
Cn1c(CCCC(=O)O)nc2cc(N(CCCl)CCCl)ccc21 [bendamustine]		79												
CC(C)C[C@H](NC(=O)[C@H](Cc1ccccc1)NC(=O)c1cnccn1)B(O)O [bortezomib, reference compound]			< 50											
